Measured values published in EP0412158A1, “ONCOSTATIC DRUG” (priority 1987, dated 1988).

Key:
[1] = test system: methyl cholanthrene A; assay: Methyl cholanthrene A tumor, evaluation by elongation of period of survival (Examples 17 to 20); type: in vivo, female BALB/C mice; conditions: 5 mg/kg ×9
[2] = test system: methyl cholanthrene A; assay: Methyl cholanthrene A tumor, evaluation by extension of period of survival (Examples 7 to 11); type: in vivo, female BALB/C mice; conditions: 5 mg/kg; for Average number of days of survival / Number of toxically killed mice/total number of mice / T/control: ip×9; for Change in body weight: ip×9, D1~D9; for T/control: days of survival
Procedure: The aforementioned compounds, A to D, were severally dissolved in distilled water to obtain aqueous solutions containing the compounds in a fixed concentration of 10 mg/ml. To the female BALB/C mice (five weeks old) to which methyl cholanthrene A had been transplanted in a ratio of 1.0 x 10^5 cells per mouse, […] to determine the mices' periods of survival. For comparison, mice to which no antineoplastic drug was administered and mice to which aminonitroso urea was administered were similarly tested.

[3] = test system: MM-46 breast cancer; type: in vivo, female C3H/He mice; conditions: 5 mg/kg, ip × 9
[4] = test system: methyl cholanthrene A tumor; assay: Methyl cholanthrene A tumor, evaluation by weight of tumor (Examples 13 to 16); type: in vivo, female BALB/C mice; conditions: 5 mg/kg
[5] = as above; type: in vivo, female BALB/C mice; conditions: mouse, in vivo, ip; read-out: largest allowable dose
Procedure: Compound E, an alkali metal salt of polymolybdic acid (Example 13), and other compounds (Compounds F to H) mentioned above were severally dissolved in distilled water to obtain aqueous solutions containing the compounds in a fixed concentration of 10 mg/ml. These aqueous solutions were administered to female BALB/C mice (five weeks old) to which methyl cholanthrene A tumor had been transplanted to test the compounds for antineoplastic activity. To be morespecific, the methyl cholanthrene A was transplanted to the mice in a ratio of 1.0 x 10^5 cells per mouse and the aqueous solution was continuously administered (at a dose of 100 mg/kg of body weight) for nine days by intraperitoneal injection. On elapse of 14 days after the stop of the administration, the tumors in the mice were weighed. For comparison, mice to which the aqeuous solution was not administered and the mice to which aminonitrosourea was administered were similarly tested.

[6] = test system: methyl cholanthrene A; assay: Methyl cholanthrene A tumor, evaluation by elongation of period of survival (Examples 31, 34 and 35); type: in vivo, female BALB/C mice
Procedure: The active compounds, M to 0, mentioned above were severally dissolved in distilled water to obtain aqueous solutions containing the compounds in a fixed concentration of 10 mg/ml. To be specific, to female BALB/C mice (five weeks old) to which methyl cholanthrene A had been transplanted in a ratio of 1.0 x 10^5 cells per mouse, […] for 9 consecutive days to determine the mice's periods of survival. For comparison, mice to which no aqueous solution was administered and mice to which aminonitrosourea was administered were similarly tested.

[7] = test system: MM-46 breast cancer; assay: MM-46 breast cancer, evaluation by size of tumor (Examples 21 to 24); type: in vivo, female C3H/He mice; conditions: 5 mg/kg
[8] = as above; type: in vivo, female C3H/He mice; conditions: mouse, in vivo, ip; read-out: largest allowable dose
[9] = test system: methyl cholanthrene A tumor; assay: Methyl cholanthrene A tumor, evaluation by size of tumor (Examples 31 to 33); type: in vivo, female BALB/C mice
Procedure: (§1) A heteropoly acid salt, Na5[IM06O24]•34H2O (Compound M), and other compounds (Compounds N and O ) were severally dissolved in distilled water to obtain aqueous solutions containing the salts in a fixed concentration of 10 mg/ml. To female BALB/C mice (five weeks old) to which methyl cholanthrene A tumor had been transplanted, the aqueous solutions were administered to test the compounds for antineoplastic activity. To be specific, the methyl cholanthrene A was transplanted to the mice at a ratio of 1.0 x 10^5 cells per mouse and the aqueous solutions were administered ([…]) for 9 consecutive days by intraperitoneal injection. On elapse of 14 and 21 days after the stop of the administration, the sizes of tumors in the mice were measured. For comparison, mice to which no aqueous solution was administered and mice to which aminonitrosourea was administered were similarly tested.

[10] = as above; type: in vivo, female BALB/C mice; conditions: mouse, in vivo, ip; read-out: largest allowable dose
Procedure: as §1

[11] = test system: methyl cholanthrene A tumor; assay: Antineoplastic activity against transplanted methyl cholanthrene A tumor, evaluation by size of tumor (Examples 1 to 6); type: in vivo, female BALB/C mice; conditions: 5 mg/kg, ip×9; for Change in body weight: body weight 13 days after transplantation; for T/control: tumor weight
Procedure: (§2) By dissolving alkylammonium salt of polymolybdic acid [NH3C3H7(iso)]s [Mo7O24] • 3H2O (Compound A) and other compounds (Compounds B to D) severally in distilled water, aqueous solutions containing the compounds in a fixed concentration of 10 mg/ml were obtained. These aqueous solutions were administered to female BALB/C mice (five weeks old) to which methyl cholanthrene A tumor had been transplanted to test the compounds for antineoplastic activity. To be specific, methyl cholanthrene A was transplanted to the mice in a ratio of 1.0 x 10^5 cells per mouse and the aqueous solutions were continuously administered to the mice by intraperitoneal injection ([…]) for nine days. On elapse of 14 days following the start of the administration, the tumors in the mice were measured. For comparison, mice to which no antineoplastic .drug was administered and mice to which aminonitroso urea was administered were tested by following the procedure described above.

[12] = as above; type: in vivo, female BALB/C mice; conditions: mouse, in vivo, ip
Procedure: as §2

Cc1ncc(CNC(=O)N(CCCl)N=O)c(N)n1 [reference compound]
Average number of days of survival [1]: 28.0±3.1(9) days | Number of toxically killed mice/total number of mice [1]: 0/8 | Ratio of prolonging life [1]: 24.4% | Average number of days of survival ([2]; No. 1): 35.8 ± 1.4 days | Number of toxically killed mice/total number of mice ([2]; No. 1): 0/8 | Change in body weight ([2]; No. 1): +1.58 g | T/control ([2]; No. 1): 138.0 | Average number of days of survival ([2]; No. 2): 28.0±3.1(9) days | Number of toxically killed mice/total number of mice ([2]; No. 2): 0/8 | Change in body weight ([2]; No. 2): +1.58 g | T/control ([2]; No. 2): 124.5 | Average number of days of survival [3]: 29.1±2.1(8) days | Average weight of tumor after 14 days [3]: 1364.3 ± 200.0 mg | Ratio of elongation of life (5) [3]: 76.4 | Average weight of tumor ([4]; ip × 9): 1151.1 ± 162.7 mg | Number of tumorless mice /total number of mice ([4]; ip × 9): 0/8 | T/control ([4]; ip×9, tumor weight): 0.447 | Change in body weight ([4]; ip×9 D1-D9, body weight 13 days after tumor transplantation): +1,58 g | MTD [5]: 5 mg/kg | Average number of days of survival ±SE ([6]; 2.5 mg/kg, ip × 9 (D1~D9)): 31.13±1.14(8) days | ILS ([6]; 2.5 mg/kg, ip × 9 (D1~D9)): 18% | Average number of days of survival ±SE ([6]; 7.5 mg/kg, ip × 9): 36.67±1.07(9) days | ILS ([6]; 7.5 mg/kg, ip × 9): 47.3% | Number of mice of no tumor/total number of mice ([6]; 7.5 mg/kg, ip × 9, observed 60 days after transplantation): 0/9 | Average weight of tumor ([7]; ip × 9): 1364.3 ± 200.0 mg | Number of tumorless mice /total number of mice ([7]; ip × 9): 0/8 | T/control ([7]; ip×9, tumor weight): 0.473 | MTD [8]: 5 mg/kg | Average weight of tumor after elapse of 14 days ± SE ([9]; 2.5 mg/kg, ip × 9 (D1~D9)): 347.9 ± 63.8 mg | T/C ([9]; 2.5 mg/kg, ip × 9 (D1~D9), tumor weight after 14 days): 0.405 | T/C ([9]; 7.5 mg/kg, ip × 9, tumor weight after 14 days): 0.367 | T/C ([9]; 7.5 mg/kg, ip × 9, tumor weight after 21 days): 0.444 | MTD [10]: 7.5 mg/kg | Average weight of tumor ([11]; No. 1): 1151.1 ± 162.7 mg | Number of tumorless mice /total number of mice ([11]; No. 1): 0/8 | Change in body weight ([11]; No. 1): +1,58 (D1~D9) g | T/control ([11]; No. 1): 0.430 | Average weight of tumor ([11]; No. 3): 1151.1 ± 162.7 mg | Number of tumorless mice /total number of mice ([11]; No. 3): 0/8 | Change in body weight ([11]; No. 3): +1,58 (D1~D9) g | T/control ([11]; No. 3): 0.430 | MTD [12]: 5 mg/kg
